Assay results reported in patent US12465603B2, “Phthalazinone based modulators for the treatment of disease” (Soley Therapeutics, Inc., priority 2022, dated 2025).

How the values were obtained:
[1] = system: A2058 (ATCC, CRL-11147) cells; assay: Cell viability assay (Cell Titre Glo, 72 hours) in A2058 cells; type: cell-based; details: Homo sapiens
Method in brief: (§1)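 10-point dose response, top final concentration 30 μM, 1 in 3 dilutions; 5000 cells per well added directly to compound. Incubated 72 hours at 37° C, 5% CO2, then viability read by Cell Titre Glo luminescence and IC50 curves fitted.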

[2] = system: PA1 (ECACC, 90013101) cells; assay: Cell viability assay (Cell Titre Glo, 72 hours) in PA1 cells; type: cell-based; details: Homo sapiens, PA-1
Method in brief: as §1

| SMILES | IC50 [1] | IC50 [2] |
| --- | --- | --- |
| COc1cc(F)cc(N2CCN(C(=O)c3nn(C)c(=O)c4ccccc34)CC2)c1 [Compound 34, 4-(4-(3-fluoro-5-methoxyphenyl)piperazine-1-carbonyl)-2-methylphthalazin-1(2H)-one] | ≤ 1000 nM | ≤ 1000 nM |
| Cn1nc(C(=O)N2CCN(c3cccc4cnn(C)c34)CC2)c2ccccc2c1=O [Compound 191] | > 20000 nM | > 20000 nM |
| Cn1nc(C(=O)N2CCN(c3cncc(Cl)c3)CC2)c2cc(F)ccc2c1=O [Compound 165] | 1000 to 10000 nM | 1000 to 10000 nM |
| COc1ccccc1C1=CCN(C(=O)c2nn(C)c(=O)c3ccccc23)CC1 [Compound 247, 4-(4-(2-methoxyphenyl)-1,2,3,6-tetrahydropyridine-1-carbonyl)-2-methylphthalazin-1(2H)-one] | ≤ 1000 nM | ≤ 1000 nM |
| Cn1nc(C(=O)N2CCN(c3ccccc3)CC2)c2cc(F)ccc2c1=O [Compound 156, 6-fluoro-2-methyl-4-(4-phenylpiperazine-1-carbonyl)phthalazin-1-one] | 1000 to 10000 nM | 1000 to 10000 nM |
| COc1c(F)cncc1N1CCN(C(=O)c2nn(C)c(=O)c3ccc(F)cc23)CC1 [Compound 233] | 1000 to 10000 nM | ≤ 1000 nM |
| CCOc1ccc(F)cc1N1CCN(C(=O)c2nn(C)c(=O)c3ccccc23)CC1 [Compound 48] | ≤ 1000 nM | ≤ 1000 nM |
| COc1cccc(N2CCN(C(=O)c3nn(C)c(=O)c4ccccc34)CC2)c1 [Compound 50] | ≤ 1000 nM | ≤ 1000 nM |
| Cn1nc(C(=O)N2CCN(c3cc(F)cc(C#N)c3)CC2)c2cnccc2c1=O [Compound 220] | 1000 to 10000 nM | 1000 to 10000 nM |
| COCc1ccnc(N2CCN(C(=O)c3nn(C)c(=O)c4ccccc34)CC2)n1 [Compound 65] | > 20000 nM | > 20000 nM |
| Cn1nc(C(=O)N2CCN(c3nccc4occc34)CC2)c2ccccc2c1=O [Compound 195] | 10000 to 20000 nM | 10000 to 20000 nM |
| Cc1cc(Cl)cc(N2CCN(C(=O)c3nn(C)c(=O)c4ccncc34)CC2)c1 [Compound 221] | ≤ 1000 nM | ≤ 1000 nM |
| Cn1nc(C(=O)N2CCN(c3ccnc4c3OCC4)CC2)c2ccccc2c1=O [Compound 189] | ≤ 1000 nM | ≤ 1000 nM |
| Cn1nc(C(=O)N2CCN(c3cc(C#N)ccc3Cl)CC2)c2ccccc2c1=O [Compound 229, 4-chloro-3-(4-(3-methyl-4-oxo-3,4-dihydrophthalazine-1-carbonyl)piperazin-1-yl)benzonitrile] | ≤ 1000 nM | ≤ 1000 nM |
| Cc1cc(C)cc(N2CCN(C(=O)c3nn(C)c(=O)c4ccccc34)CC2)c1 [Compound 205] | ≤ 1000 nM | ≤ 1000 nM |
| COc1ccncc1N1CCN(C(=O)c2nn(C)c(=O)c3ccccc23)CC1 [Compound 37] | ≤ 1000 nM | ≤ 1000 nM |
| O=C(c1nn(C2COC2)c(=O)c2ccccc12)N1CCN(c2ccccc2)CC1 [Compound 8] | > 20000 nM | > 20000 nM |
| CCn1nc(C(=O)N2CCN(c3ccc(F)cc3OC(F)F)CC2)c2ccccc2c1=O [Compound 145] | 1000 to 10000 nM | ≤ 1000 nM |
| Cn1nc(C(=O)N2CCN(c3cc(C#N)cc(C#N)c3)CC2)c2ccccc2c1=O [Compound 230, 5-(4-(3-methyl-4-oxo-3,4-dihydrophthalazine-1-carbonyl)piperazin-1-yl)isophthalonitrile] | 1000 to 10000 nM | ≤ 1000 nM |
| COc1cc(F)cc(N2CCN(C(=O)c3nn(C)c(=O)c4ccncc34)CC2)c1 [Compound 176] | ≤ 1000 nM | ≤ 1000 nM |
| CCn1nc(C(=O)N2CCN(c3ccc(C)s3)CC2)c2ccccc2c1=O [Compound 125] | > 20000 nM | 10000 to 20000 nM |
| CCn1nc(C(=O)N2CCN(c3cccc(F)n3)CC2)c2ccccc2c1=O [Compound 82] | > 20000 nM | 10000 to 20000 nM |
| CCn1nc(C(=O)N2CCN(c3cncnc3C3CC3)CC2)c2ccccc2c1=O [Compound 122] | 1000 to 10000 nM | ≤ 1000 nM |

| SMILES | IC50 [1] | IC50 [2] |
| --- | --- | --- |
| Cn1nc(C(=O)N2CCN(c3cncnc3C3CC3)CC2)c2ccccc2c1=O [Compound 40] | 1000 to 10000 nM | 1000 to 10000 nM |
| CCn1nc(C(=O)N2CCN(c3ccc(F)cc3OC)CC2)c2ccccc2c1=O [Compound 130] | ≤ 1000 nM | ≤ 1000 nM |
| Cc1cncc(N2CCN(C(=O)c3nn(C)c(=O)c4ccc(F)cc34)CC2)c1C [Compound 208] | 1000 to 10000 nM | ≤ 1000 nM |
| Cn1nc(C(=O)N2CCN(c3cccn4ccnc34)CC2)c2ccccc2c1=O [Compound 192] | 10000 to 20000 nM | 1000 to 10000 nM |
| CCn1nc(C(=O)N2CCN(c3ccc(Cl)cc3OC)CC2)c2ccccc2c1=O [Compound 117] | ≤ 1000 nM | ≤ 1000 nM |
| CCn1nc(C(=O)N2CCN(c3ccccc3C)CC2)c2ccccc2c1=O [Compound 102] | ≤ 1000 nM | ≤ 1000 nM |
| Cn1nc(C(=O)N2CCN(c3ccccc3)CC2)c2ccncc2c1=O [Compound 171, 3-methyl-1-(4-phenylpiperazine-1-carbonyl)pyrido[3,4-d]pyridazin-4-one] | > 20000 nM | > 20000 nM |
| CCn1nc(C(=O)N2CCN(c3cccc4c3OC(F)(F)O4)CC2)c2ccccc2c1=O [Compound 124] | ≤ 1000 nM | ≤ 1000 nM |
| CCn1nc(C(=O)N2CCN(c3nnccc3OC)CC2)c2ccccc2c1=O [Compound 94] | 10000 to 20000 nM | 1000 to 10000 nM |
| Cn1nc(C(=O)N2CCN(c3cccc(C#N)c3)CC2)c2cnccc2c1=O [Compound 219] | 1000 to 10000 nM | 1000 to 10000 nM |
| Cc1cc(C)nc(N2CCN(C(=O)c3nn(C)c(=O)c4ccccc34)CC2)n1 [Compound 64] | > 20000 nM | 1000 to 10000 nM |
| Cn1nc(C(=O)N2CCN(c3cc(Cl)cc(C#N)c3)CC2)c2ccccc2c1=O [Compound 225] | ≤ 1000 nM | ≤ 1000 nM |
| COc1cc(C#N)cc(N2CCN(C(=O)c3nn(C)c(=O)c4ccc(F)cc34)CC2)c1 [Compound 213] | ≤ 1000 nM | ≤ 1000 nM |
| Cn1nc(C(=O)N2CCN(c3cccc(S(C)(=O)=O)c3)CC2)c2ccccc2c1=O [Compound 69] | 1000 to 10000 nM | 1000 to 10000 nM |
| Cn1nc(C(=O)N2CCN(c3ccncc3C3CC3)CC2)c2ccccc2c1=O [Compound 71] | ≤ 1000 nM | ≤ 1000 nM |
| CCn1nc(C(=O)N2CCN(c3ccc(F)c(OC)c3)CC2)c2ccccc2c1=O [Compound 150] | ≤ 1000 nM | ≤ 1000 nM |
| Cn1nc(C(=O)N2CCN(c3cc(C#N)cc(C(F)F)c3)CC2)c2ccccc2c1=O [Compound 201] | ≤ 1000 nM | ≤ 1000 nM |
| Cc1cc(C#N)cc(N2CCN(C(=O)c3nn(C)c(=O)c4ccc(F)cc34)CC2)c1 [Compound 235] | ≤ 1000 nM | ≤ 1000 nM |
| CCn1nc(C(=O)N2CCN(c3cccc(F)c3OC)CC2)c2ccccc2c1=O [Compound 138] | ≤ 1000 nM | ≤ 1000 nM |
| Cn1ccc(N2CCN(C(=O)c3nn(C)c(=O)c4ccccc34)CC2)n1 [Compound 11] | > 20000 nM | > 20000 nM |
| COc1ncc(Cl)cc1N1CCN(C(=O)c2nn(C)c(=O)c3ccccc23)CC1 [Compound 23] | ≤ 1000 nM | ≤ 1000 nM |
| Cn1nc(C(=O)N2CCN(c3cc(C#N)ccc3C3CC3)CC2)c2ccccc2c1=O [Compound 62] | ≤ 1000 nM | ≤ 1000 nM |
